The subject of assay [1] is human amelanotic melanoma cell line C32 (CRL-1585). The assay is described as follows: Fixable viability stain (FVS520) cytotoxicity assay, flow cytometry. Type of assay: cell-based. To be noted: C32 cells, 24 h, 10–300 μg/mL, mean ± SD. As for the experimental part: (§1) The human amelanotic melanoma cell line C32 (CRL-1585) and a normal human fibroblast cell line (PCS-201-012) were cultured in DMEM. DMEM was blended with 10% FBS, 10 µg/mL streptomycin, and […] penicillin. The cells were cultured in 5% CO2 and fully humidified at 37 °C. All tested compounds were used at a final DMSO concentration of not more than 0.5% (v/v). Cells cultured in drug-free DMEM were used as controls, and cells with the addition of only DMSO were used as solvent-controls; VLB was used as a positive control. The JM4 fraction was analyzed at the following concentrations: 25, 50 and 100 µg/mL and compound 22 and VLB were analyzed at 25 µg/mL. For the cytotoxicity assay, all extracts and compounds were tested at the following concentrations: 10, 25, 50, 100, 200, and 300 µg/mL.
This analysis was performed to estimate the level of viable cells after treatment with JM1–JM6, compounds 9, 12, 22 and VLB at concentrations ranging from 10 to 300 µg/mL. Cytotoxicity was evaluated by FVS520 via a flow cytometer (BD FACSCanto II flow cytometer, San Jose, CA, USA). In contrast to nonpermeable live cells, the permeable membranes of necrotic cells allow for the intracellular diffusion of FVS520 and the covalent binding of high concentrations of amines. Thus, necrotic cells contained a higher level of FVS520 and, consequently, increased fluorescence intensity than viable cells. After 24 h of incubation, C32 cells and fibroblasts were washed with PBS, trypsinized and resuspended in DMEM. The supernatant was removed, and 0.5 mL of Stain Buffer with the addition of 1 µL of FVS520 was added to each sample, which was vortexed immediately and kept for 10–15 min in the dark at room temperature. After incubation and the addition of 2 mL of PBS, the supernatant was removed, the cells were resuspended in 300 µL of PBS and then immediately subjected to analysis. The results were analyzed based on FACSDiva software (BD Biosciences Systems, San Jose, CA, USA). Based on the results of the cytotoxicity analysis, further research in this project focused on the determination of the full anticancer mechanism of the most promising fraction JM4 and compound 22.
In general terms: In flow cytometry, cells or beads pass a laser one at a time.

The subject of assay [2] is caspase-10 in C32 melanoma cells. The assay can be described thus: FLICA Caspase-10 assay, flow cytometry. Type of assay: cell-based, human. Particulars: 25 μg/mL, 24 h. The procedure:
(§2) The human amelanotic melanoma cell line C32 (CRL-1585) and a normal human fibroblast cell line (PCS-201-012) were cultured in DMEM. […] Cells cultured in drug-free DMEM were used as controls, and cells with the addition of only DMSO were used as solvent-controls; VLB was used as a positive control. The JM4 fraction was analyzed at the following concentrations: 25, 50 and 100 µg/mL and compound 22 and VLB were analyzed at 25 µg/mL. For the cytotoxicity assay, all extracts and compounds were tested at the following concentrations: 10, 25, 50, 100, 200, and 300 µg/mL. Determination of the caspase-3, caspase-8, caspase-9, and caspase-10 activity were carried out by the following kits: FLICA Caspase-3/7 Assay Kit, FLICA Caspase-8 Assay Kit, FLICA Caspase-9 Assay Kit, and FLICA Caspase-10 Assay Kit using a BD FACSCanto II flow cytometer. […] After 1 h, the cells were flushed with apoptosis wash buffer and resuspended in […] of the same reagent with […] PI. The procedure of determining the activity of each caspase was carried out analogously. The results were analyzed with FACSDiva software.

Assay [3] has as its system C32 melanoma cells. The assay can be described thus: Annexin V-FITC/PI binding apoptosis assay, flow cytometry. Type of assay: cell-based, human. Particulars: 25 μg/mL, 24 h; for apoptotic cells: untreated control 7.3 ± 1.3%.
Method: During programmed cell death, annexin V has a high affinity for phosphatidylserine (PS) when it is exposed to the extracellular environment. […] The assay allows differentiability between viable cells (annexin V–/PI–) and early (annexin V–/PI+) and late (annexin V+/PI+) apoptotic cells, as well as necrotic cells (annexin V–/PI+).
The human amelanotic melanoma cell line C32 (CRL-1585) and a normal human fibroblast cell line (PCS-201-012) were cultured in DMEM. DMEM was blended with 10% FBS, 10 µg/mL streptomycin, and 10 units/mol penicillin. The cells were cultured in 5% CO2 and fully humidified at 37 °C. All tested compounds were used at a final DMSO concentration of not more than 0.5% (v/v). Cells cultured in drug-free DMEM were used as controls, and cells with the addition of only DMSO were used as solvent-controls; VLB was used as a positive control.
Characterization of the mode of apoptosis induced by JM4, 22 and VLB was performed in C32 cells via flow cytometry using a FITC Annexin V Apoptosis Detection Kit II. All stages of programmed cell death could be identified by annexin V bound with high affinity to PS. PI is a standard flow cytometric viability explorer that stains cells that interfere with the cell membrane, and it can be used to distinguish necrotic cells from dead cells. After the C32 cells were incubated for 24 h with various concentrations of JM4, 22 and VLB, they were trypsinized and resuspended in binding buffer. After that, 5 µL of annexin V-FITC and 5 µL of PI were added and maintained for 15 min in the dark at room temperature. The results were analyzed using FACSDiva software.
The subject of assay [4] is C32 melanoma cells. The assay is described as follows: Mitochondrial membrane potential (MMP), JC-1 MitoScreen, flow cytometry. Type of assay: cell-based, human. To be noted: 25 μg/mL, 24 h; untreated control 5.2 ± 0.1%. The procedure:
The human amelanotic melanoma cell line C32 (CRL-1585) and a normal human fibroblast cell line (PCS-201-012) were cultured in DMEM. […] Cells cultured in drug-free DMEM were used as controls, and cells with the addition of only DMSO were used as solvent-controls; VLB was used as a positive control. The JM4 fraction was analyzed at the following concentrations: 25, 50 and 100 µg/mL and compound 22 and VLB were analyzed at 25 µg/mL. For the cytotoxicity assay, all extracts and compounds were tested at the following concentrations: 10, 25, 50, 100, 200, and 300 µg/mL. […] After incubation, the cells were flushed again, resuspended in PBS, and immediately subjected to BD FACSCanto II flow cytometry analysis. The results were analyzed using FACSDiva.

In assay [5] the test system is caspase-9 in C32 melanoma cells. The assay is described as follows: FLICA Caspase-9 assay, flow cytometry. Type of assay: cell-based, human. To be noted: 25 μg/mL, 24 h. The procedure: as §2
Assay [6] relates to caspase-8 in C32 melanoma cells. The assay is described as follows: FLICA Caspase-8 assay, flow cytometry. Type of assay: cell-based, human. Particulars: 25 μg/mL, 24 h. As for the experimental part: as §2
The subject of assay [7] is normal human fibroblast cell line (PCS-201-012). The assay is described as follows: Fixable viability stain (FVS520) cytotoxicity assay, flow cytometry. Type of assay: cell-based. Particulars: normal human fibroblasts, 24 h, 10–300 μg/mL. As for the experimental part:
The human amelanotic melanoma cell line C32 (CRL-1585) and a normal human fibroblast cell line (PCS-201-012) were cultured in DMEM. […] Cells cultured in drug-free DMEM were used as controls, and cells with the addition of only DMSO were used as solvent-controls; VLB was used as a positive control. The JM4 fraction was analyzed at the following concentrations: 25, 50 and 100 µg/mL and compound 22 and VLB were analyzed at 25 µg/mL. For the cytotoxicity assay, all extracts and compounds were tested at the following concentrations: 10, 25, 50, 100, 200, and 300 µg/mL. […] Cytotoxicity was evaluated by FVS520 via a flow cytometer (BD FACSCanto II flow cytometer, San Jose, CA, USA). In contrast to nonpermeable live cells, the permeable membranes of necrotic cells allow for the intracellular diffusion of FVS520 and the covalent binding of high concentrations of amines. Thus, necrotic cells contained a higher level of FVS520 and, consequently, increased fluorescence intensity than viable cells. After 24 h of incubation, C32 cells and fibroblasts were washed with PBS, trypsinized and resuspended in DMEM. […] After incubation and the addition of 2 mL of PBS, the supernatant was removed, the cells were resuspended in 300 µL of PBS and then immediately subjected to analysis. The results were analyzed based on FACSDiva software (BD Biosciences Systems, San Jose, CA, USA). […]

Assay [8] relates to C32 melanoma cells. The assay can be described thus: Cell cycle analysis by PI staining, flow cytometry. The class given is cell-based, human. Particulars: 25 μg/mL, 24 h. The procedure:
The human amelanotic melanoma cell line C32 (CRL-1585) and a normal human fibroblast cell line (PCS-201-012) were cultured in DMEM. […] Cells cultured in drug-free DMEM were used as controls, and cells with the addition of only DMSO were used as solvent-controls; VLB was used as a positive control. The JM4 fraction was analyzed at the following concentrations: 25, 50 and 100 µg/mL and compound 22 and VLB were analyzed at 25 µg/mL. For the cytotoxicity assay, all extracts and compounds were tested at the following concentrations: 10, 25, 50, 100, 200, and 300 µg/mL. The allocation of cell cycle stage was analyzed on a FACSCanto II flow cytometer. C32 cells were cured with JM4, 22 and VLB for 24 h of incubation. Thereafter, the cells were harvested and adjusted with 1 mL of 70% EtOH and maintained at −20 °C for 24 h. Next, the cells were washed with PBS, treated with 50 µg/mL DNase-free RNase A solution for 5 min at room temperature, stained with 100 µg/mL PI for 30 min at 37 °C, and submitted to flow cytometry analysis. The results were analyzed with FACSDiva software.

Assay [9] concerns C32 melanoma cells. The assay is described as follows: Autophagy Assay, Red, flow cytometry. To be noted: 25 μg/mL, 24 h. Type of assay: cell-based, human. The procedure: as §1
An autophagy assay was carried out to detect the impact of JM4, compound 22, and VLB on the autophagy process of C32 cells via flow cytometry using an Autophagy Assay, Red kit. The probe is a cell-permeable aliphatic molecule that brightly fluoresces after unjumbling […] and autolysosomes into lipid membranes. […] The results were analyzed with FACSDiva software.

Assay [10] concerns caspase-3 in C32 melanoma cells. The assay is described as follows: FLICA Caspase-3/7 assay, flow cytometry. The class given is cell-based, human. To be noted: 25 μg/mL, 24 h; untreated control 4.2 ± 1.3%. As for the experimental part:
as §1
Determination of the caspase-3, caspase-8, caspase-9, and caspase-10 activity were carried out by the following kits: FLICA Caspase-3/7 Assay Kit, FLICA Caspase-8 Assay Kit, FLICA Caspase-9 Assay Kit, and FLICA Caspase-10 Assay Kit using a BD FACSCanto II flow cytometer. C32 cells were incubated with JM4, compound 22 and VLB for 24 h, washed twice with PBS, resuspended in buffer supplemented with […] of FLICA reagent, and incubated. […] The results were analyzed with FACSDiva software.

Experimental findings from paper PMC8036727, “In Vitro Anticancer Potential of Jasione montana and Its Main Components against Human Amelanotic Melanoma Cells” (International Journal of Molecular Sciences, 2021) are described below.

Converted amounts (≈) assume the structure as drawn. Where a name gives a salt, the structure may show the parent alone. Bounds are passed on as bounds.

For orientation: IC50 means the concentration that inhibits the measured activity by half. The low end stands for greater potency in that assay, the high end for weaker potency in that assay. In assay [1], `O=c1cc(-c2ccc(O)c(O)c2)oc2cc(OC3OC(CO)C(O)C(O)C3OC3OCC(O)C(O)C3O)cc(O)c12` [Compound 9, luteolin 7-O-β-D-xylosyl-(1-2)-β-D-glucoside] gave an IC50 greater than 300 µg/mL.

Take `O=c1cc(-c2ccc(O)c(O)c2)oc2cc(OC3OC(CO)C(O)C(O)C3O)cc(O)c12` [Compound 12, luteolin 7-O-β-D-glucoside]: in [1], the IC50 is greater than 300 µg/mL.

`O=c1cc(-c2ccc(O)c(O)c2)oc2cc(O)cc(O)c12` [Compound 22, luteolin]: the 50% inhibitory concentration (IC50) in [1] was 95.1 ± 7.2 µg/mL (≈ 332 µM); in [7], 194 ± 4.4 µg/mL (≈ 678 µM). For the same compound, in [2], the “cells with active caspase-10” value is 15.4 ± 0.7%. This compound yielded an apoptotic cells with C32 melanoma cells [3] of 29.2 ± 3.0%. Moreover, the “cells with a reduced MMP” value with C32 melanoma cells [4] came out at 31.8 ± 0.7%. The “cells with active caspase-9” value in assay [5] was determined as 16.6 ± 0.8%. For the same compound, the “cells with active caspase-8” value in assay [6] was determined as 20.2 ± 1.5%. Moreover, the “percentage of C32 cells in G2/M phase” value in the assay with C32 melanoma cells [8] (untreated control 6.1 ± 0.6%) is 14.6 ± 1.5%. In the assay with C32 melanoma cells [8] (untreated control 73.0 ± 0.9%), the “percentage of C32 cells in G1 phase” value worked out at 35.3 ± 3.0%.

In assay [1], `CC[C@]1(O)C[C@@H]2CN(CCc3c([nH]c4ccccc34)[C@@](C(=O)OC)(c3cc4c(cc3OC)N(C)[C@H]3[C@@](O)(C(=O)OC)[C@H](OC(C)=O)[C@]5(CC)C=CCN6CC[C@]43[C@@H]65)C2)C1` [VLB, vinblastine sulfate] showed a half-inhibitory concentration (IC50) of 148 ± 7.7 µg/mL. In the assay with C32 melanoma cells [3], this compound showed a necrotic cells of 4.2 ± 1.0% and an apoptotic cells of 27.4 ± 1.0%. Moreover, in the assay with C32 melanoma cells [4], the “cells with a reduced MMP” value is listed as 34.1 ± 3.0%. In the assay with C32 melanoma cells [9] (untreated control 4.8 ± 0.8%), the autophagic cells is listed as 76.7 ± 0.5%. Also, the nonautophagic cells with C32 melanoma cells [9] (untreated control 94.5 ± 1.0%) stood at 22.4 ± 0.6%. The “cells with active caspase-3” value in assay [10] was 23.4 ± 3.5%.
